The subject of data set [1] is Ralstonia solanacearum (Rs). Type of data set: cell-based. The conditions noted are these: at the highest peptide concentration (32μg/ml) tested; data not shown; before the tests in minimal media.
Data set [2] concerns Eco DH5α.
Data set [3] deals with Xev Xvt28.
The subject of data set [4] is Eco DH5α. The conditions noted are these: 48 h.
Data set [5] relates to Xev Xvt28. The conditions noted are these: 48 h.
In data set [6] the test system is Xcc Xcc17. The conditions noted are these: Table 4, rich medium, up to 32 μg/ml.
In data set [7] the test system is Xoo Xoo28. Conditions: Table 4, rich medium, up to 32 μg/ml.
Data set [8] deals with Atu C58C1. The conditions noted are these: Table 4, rich medium, up to 32 μg/ml.
The next data set has as its system Pst DC3000. The conditions noted are these: Table 4, rich medium, up to 32 μg/ml.
A further data set concerns Pss B728a. The conditions noted are these: Table 4, rich medium, up to 32 μg/ml.
The next data set deals with Bc. The conditions noted are these: at the highest peptide concentration (32μg/ml) tested; data not shown; before the tests in minimal media.
The next data set deals with Cgl FST02. The conditions noted are these: at the highest peptide concentration (32μg/ml) tested; data not shown; before the tests in minimal media.
For data set [9], the system named is Xcc Xcc17. Type of data set: cell-based, Xanthomonas campestris pv. campestris. The conditions noted are these: rich medium, HPLC-purified peptides, peptide 0, 2, 10, 20 μg/ml, 24 h, OD600; lowest concentration inhibiting 50% of growth.
Data set [10] relates to Xoo Xoo28. The class given is cell-based, Xanthomonas oryzae pv. oryzae. The conditions noted are these: rich medium, HPLC-purified peptides, peptide 0, 2, 10, 20 μg/ml, 24 h, OD600; lowest concentration inhibiting 50% of growth.
In data set [11] the test system is Atu C58C1. The class given is cell-based, Agrobacterium tumefaciens. The conditions noted are these: rich medium, HPLC-purified peptides, peptide 0, 2, 10, 20 μg/ml, 24 h, OD600; lowest concentration inhibiting 50% of growth.
Data set [12] in a line: Circular dichroism, secondary structure deconvolution. The class given is physicochemical. Conditions: CD, dissolved in water, structural deconvolution. As to the method:
The peptides were dissolved in water to make a stock solution and then diluted in the solution that contained different concentrations of trifluoroethanol (TFE) to the desired final TFE concentration. The circular dichroism (CD) spectra between 190 and 250nm were recorded on a J-815 CD spectrometer (JASCO, Japan). The bandwidth was 2nm, and the step resolution was 0.05nm. Each sample was scanned twice, and the average of the two measurements was smoothed using the Savitzky-Golay method to get the final CD spectrum. The CD spectra were deconvoluted using the CD Multivariate SSE software version 2.0.1 (JASCO, Japan).

The mark [13] stands for this setting: spotted on rich agar 48 h, no colony.

What is called IC50 is the concentration at which inhibition is half-maximal. A word on the MBC: it is the smallest concentration meeting the test's criterion for killing. Read a high MBC as less potent killing. A word on the MIC: it is the least concentration at which growth counts as inhibited. The low end stands for inhibition by little substance, the high end for a need for much substance.

Where two headings read alike, the source gives them in different places.

Turning to Ac-WKKLKKLLKKLKKLLKKL-NH2 [pepD], the antimicrobial activity entry (in data set [1]; in the data set with Bc; in the data set with Cgl FST02) was “did not have detectable antimicrobial activity” each time. Further, the IC50 is 10 µg/mL in the data set on Eco DH5α [2] (DH5α, 24 h) and 4 µg/mL with Xev Xvt28 [3] (24 h). Further, the MBC against Eco DH5α [4] is 8 µg/mL; against Xev Xvt28 [5] it was 16 µg/mL; against Xcc Xcc17 [6] (setting [13]), 8 µg/mL; with Xoo Xoo28 [7] (setting [13]), 4 µg/mL; with Atu C58C1 [8] (setting [13]), “– (“–” indicates that no antimicrobial activity was detected in rich media at the highest peptide concentration (32μg/ml) that was tested in this study.)”; against Pcc it was “– (key: “–” indicates that no antimicrobial activity was detected in rich media at the highest peptide concentration (32μg/ml) that was tested in this study.)”. Besides, the MBC was 32 µg/mL in the data set on Pst DC3000 (setting [13]) and “– (“–” indicates that no antimicrobial activity was detected in rich media at the highest peptide concentration (32μg/ml) that was tested in this study.)” in the data set with Pss B728a (setting [13]). The MIC in the data set on Eco DH5α [4] was 8 µg/mL; with Xev Xvt28 [5] it was 4 µg/mL; in the data set on Xcc Xcc17 [6] (48 h, no visible growth) it was 2 µg/mL; in the data set on Xoo Xoo28 [7] (48 h, no visible growth), 4 µg/mL; in the data set on Atu C58C1 [8] (48 h, no visible growth), 4 µg/mL; against Pcc (Table 4, rich medium, 48 h, no visible growth, up to 32 μg/ml), 32 µg/mL. In addition, the MIC against Pst DC3000 (48 h, no visible growth) is 16 µg/mL; against Pss B728a (48 h, no visible growth), 32 µg/mL.
On to Ac-WKLLKLLLKLLKLLLKLL-NH2 [pepA], for which the IC50 entry in the data set with Xcc Xcc17 [9] is “– (“–” indicates that no antimicrobial activity was detected in rich media at the highest peptide concentration (20μg/ml) that was tested in this study.)”; with Xoo Xoo28 [10], “– (“–” indicates that no antimicrobial activity was detected in rich media at the highest peptide concentration (20μg/ml) that was tested in this study.)”; in the data set with Atu C58C1 [11], “– (“–” indicates that no antimicrobial activity was detected in rich media at the highest peptide concentration (20μg/ml) that was tested in this study.)”; in the data set with Eco DH5α [2], “– (key: “–” indicates that no antimicrobial activity was detected in rich media at the highest peptide concentration (20μg/ml) that was tested in this study.)”; in the data set on Xev Xvt28 [3], “– (key: “–” indicates that no antimicrobial activity was detected in rich media at the highest peptide concentration (20μg/ml) that was tested in this study.)”. Besides, the α-helix content result in data set [12] is listed as “over 90%”.

For the origin of these results see publication PMC8514817, “De Novo Design of Antimicrobial Peptides With a Special Charge Pattern and Their Application in Combating Plant Pathogens” (Frontiers in Plant Science, 2021).
